Laboratory results from publication PMC12756723, “Derivatives of the Cashew Nut Shell Liquid as Ligands of Pseudomonas aeruginosa Phenazine Protein D (PaPhzD)” (ACS Omega, 2025).
“Also recorded” adds a separate entry of the source.

What was measured:
Format in all cases: cell-based, Pseudomonas aeruginosa
[1] = tested on: P. aeruginosa cells (ATCC 27853); assay: Screening of PYO production inhibitors (supernatant absorbance 691 nm); details: 100 μM
Protocol: P. aeruginosa cells (ATCC 27853) were inoculated by depletion on King’s A agar, and the plates were incubated at 30 °C for 24 h. Isolated colonies were collected and resuspended in sterile saline solution (0.85%) until turbidity equivalent to optical density (OD) at 600 nm, equal to 0.3 (1.5 × 10^8 CFU/mL). This bacterial suspension was diluted 10-fold and used to inoculate King’s A broth.
The potential inhibitors, previously solubilized in DMSO, were added to the culture medium after the inoculation (final concentration = 100 μM). The control group was cultured in the presence of an equivalent volume of DMSO but without the presence of potential inhibitors. The cell suspension was maintained at 30 °C under constant agitation (180 rpm) for 24 h in a 24-well plate. After this period, the OD600 was measured to evaluate bacterial growth, and in parallel, after being subjected to centrifugation, the supernatant was read in a 96-well plate at a wavelength of 691 nm. The sterile medium used for culturing the microorganism was used as a positive control, and culture medium containing 1% DMSO was used as a negative control.

P. aeruginosa PA14 = assay: Biofilm assay (crystal violet); details: 100 μM, vs DMSO control
Protocol: Exponential phase cultures of P. aeruginosa PA14 were diluted to 5 × 10^5 colony forming units (CFU) in 48-well plates with LB containing each compound (1, 3, and 5) at 100 μM final concentrations or 0.1% DMSO (v/v) as a negative control. The plate was incubated steadily at 30 °C for 20 h inside a plastic bag to avoid evaporation. After the incubation, the OD600 of each well was measured in a plate reader (SpectraMax Paradigm). The planktonic bacteria were removed by turning the plate over the waste, followed by three steps of washing with distilled water. After drying, a solution of 1% crystal violet was added to each well and incubated at room temperature for 30 min to stain the attached cells forming a ring at the air–liquid interface. The crystal violet solution was removed, and the plate was washed using the same procedure. The dye was solubilized with 30% acetic acid for 30 min at room temperature. The Abs550 was measured, and the value was divided by the OD600 for each well. A total of 24 replicates were made for each treatment (6 wells per plate, four plates)

phzA1-G1 = assay: lacZ transcriptional fusion, phzA1-G1 operon; details: late exponential phase
Protocol: P. aeruginosa harbors two identically structured operons in its genome, which encode most of the enzymes responsible for PYO synthesis (phzA1-G1 and phzA2-G2) but have slightly different regulatory regions 1. lacZ transcriptional fusions for each operon were assayed at mid-log and late exponential phases (OD=1 and 3, respectively). At mid-log cultures, the expression of both QS-regulated operons is extremely low, and it increases more than 1000-fold at late exponential phase for phzA1-G1 and 4-fold for phzA2-G2, as expected. Addition of compounds 2 and 4 had no effect for both operons in the late […]
synthesis is not related to inhibition at the transcriptional level.
Figure 7S: Effect of LDT10 (2) and LDT13 (3) on the phzA1-G1 (A) and phzA2-G2 […]
(1 picture or pasted object on this page, not shown here)

CCCCCCCCCCCCCCCc1cccc(O)c1 [Compound 2]
Pyocyanin production, Cohen's d vs control ([1]; 24 h, 30 °C): −2.56 | Effect on pyocyanin production ([1]; vs DMSO control): decreased pyocyanin production | Effect on biofilm formation (P. aeruginosa PA14): without affecting bacterial growth or biofilm formation; also recorded: not significantly different the control | Effect on phzA1-G1 transcription (phzA1-G1): no effect
